Test results from ChEMBL document CHEMBL1155127, “Paw paw and cancer: annonaceous acetogenins from discovery to commercial products” (J Nat Prod, 2008).

Assays:
[1] = system: P388; assay: Antitumor activity against mouse P388 cells at 250 ug/kg by in vivo 3PS assay; type: functional
[2] = system: A2780; assay: Antitumor activity against human A2780 cell xenografted athymic mouse at 1000 ug/kg/day; type: functional; settings: read-out: TGI
[3] = system: P388; assay: Antitumor activity against mouse P388 cells at 25 ug/kg by in vivo 3PS assay; type: functional
[4] = system: P388; assay: Antitumor activity against mouse P388 cells xenografted mouse at 0.025 mg/kg/day for 10 days by 3PS assay; type: functional
[5] = system: L1210; assay: Antitumor activity against mouse L1210 cell xenografted mouse at 200 ug/kg; type: functional
[6] = system: L1210; assay: Antitumor activity against mouse L1210 cell xenografted mouse at 400 ug/kg; type: functional
[7] = system: A2780; assay: Antitumor activity against human A2780 cell xenografted athymic mouse at 125 ug/kg/day; type: functional; settings: read-out: TGI
[8] = system: P388; assay: Antitumor activity against mouse P388 cells in at 1.4 mg/kg by in vivo 3PS assay; type: functional
[9] = system: Mus musculus; assay: Toxicity in mouse P388 cells xenografted mouse at 0.22 mg/kg/day for 10 days; settings: in vivo, 240 h
[10] = system: P388; assay: Antitumor activity against mouse P388 cells xenografted mouse at 0.95 mg/kg/day for 10 days by 3PS assay; type: functional
[11] = system: L1210; assay: Antitumor activity against mouse L1210 cell xenografted mouse at 15000 ug/kg; type: functional
[12] = system: KB; assay: Antitumor activity against human KB cell xenografted mouse assessed as inhibition of tumor growth at 900 ug/kg administered every 2 days for 6 days; type: functional
[13] = Antitumor activity against multidrug resistant human KBv200 cell xenografted mouse assessed as inhibition of tumor growth at 900 ug/kg administered every 2 days for 6 days; type: functional

**Q.** For CCCCCCCCCCC(O)C1CCC(C2CCC(C(O)CCCCCCCCCCC(O)CC3=CC(C)OC3=O)O2)O1 (centres undefined) [ROLLINIASTATIN], which T/C [1] is on record?
**A.** Its T/C is 128%.

**Q.** With CCCCCCCCCC[C@H](O)[C@H]1CC[C@H]([C@H](O)CC[C@H](O)[C@@H]2CC[C@@H](CCCCCCC[C@@H](O)CC3=C[C@H](C)OC3=O)O2)O1 [BULLATALICIN] as the molecule, how does the inhibition in vivo at 1 mg/kg/day [2] read?
**A.** Its inhibition in vivo at 1 mg/kg/day is 75%.

**Q.** What does the source list for CCCCCCCCCCC(O)C1CCC(C2CCC(C(O)CCCCCCCC[C@H](O)CC3=C[C@@H](C)OC3=O)O2)O1 (some centres undefined) [ASIMICIN]?
**A.** T/C [3]: 124%; T/C [4]: 124%; T/C [5]: 131%

**Q.** Which T/C [6] does the source give for CCCCCCCCCC[C@H](O)[C@H]1CC[C@H]([C@H]2CC[C@H]([C@H](O)CCCCCCCCCC[C@@H]3CC(CC(C)=O)C(=O)O3)O2)O1 (some centres undefined) [BULLATACINONE] here?
**A.** Its T/C is 144%.

**Q.** And the inhibition in vivo at 0.125 mg/kg/day [7]?
**A.** Its inhibition in vivo at 0.125 mg/kg/day is 52%.

**Q.** Which T/C [8] does the source give for CCCCCCCCCCC(O)C1CCC(C2CCC(C(O)C(=O)CCCCCCCCCCCC3CC(C)OC3=O)O2)O1 (centres undefined) [ROLLINONE] here?
**A.** The T/C was 147%.

**Q.** For CCCCCCCCCC[C@@H](O)[C@H]1CC[C@H]([C@H]2CC[C@H]([C@H](O)CCCCCCCCCC[C@@H](O)CC3=C[C@H](C)OC3=O)O2)O1 [ASIMICIN], which Activity [9] is on record?
**A.** The Activity was “Toxic”.

**Q.** With CCCCCCCCCCCC[C@@H](O)[C@H]1CC[C@H]([C@H](O)CCCC[C@H](O)CCCCC[C@@H](O)CC2=CC(C)OC2=O)O1 (some centres undefined) [ANNONACIN] as the molecule, how does the T/C [10] read?
**A.** Its T/C is 124%.

**Q.** Which T/C [8] does the source give for CCCCCCCCCC[C@H](OC(C)=O)[C@H]1CC[C@H]([C@H]2CC[C@H]([C@H](O)CCCCCCCCCCCCC3=C[C@H](C)OC3=O)O2)O1 [UVARICIN] here?
**A.** The T/C was 157%.

**Q.** Which T/C [11] does the source give for CC(=O)O[C@H]1C(=O)[C@@]2(C)[C@H]([C@H](OC(=O)c3ccccc3)[C@]3(O)C[C@H](OC(=O)[C@H](O)[C@@H](NC(=O)c4ccccc4)c4ccccc4)C(C)=C1C3(C)C)[C@]1(OC(C)=O)CO[C@@H]1C[C@@H]2O [PACLITAXEL] here?
**A.** The T/C was 139%.

**Q.** Which results are given for CCCCC[C@@H](O)[C@H](O)CCC[C@@H](O)[C@H]1CC[C@H]([C@H]2CC[C@H]([C@H](O)CCCCCCCCCCCCC3=C[C@H](C)OC3=O)O2)O1?
**A.** inhibition in vivo at 0.9 mg/kg [12]: 52.3%; inhibition in vivo at 0.9 mg/kg [13]: 56.5%
